Consider eight compounds from PubChem BioAssay (NCI).

Among the test systems are EKVX NSCLC; K-562 leukemia; KM12 colon; MALME-3M melanoma; NCI-H23 lung; OVCAR-4 ovarian; SF-539 CNS; SNB-75 CNS; T-47D breast; SN12C renal.
Common to all, as to assay: NCI anticancer screen, dose series, 48 h

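Where inhibition never reached the appropriate level, the endpoint shown equals the highest concentration tested. Otherwise, values were interpolated linearly from a five-concentration, 48-hour dose response in 96-well plates. At the GI50, growth is halved. TGI: concentration producing complete growth inhibition.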 A value given as a limit tells only on which side of the number the result lay.

On to `C(#Cc1ccccc1C#Cc1cccs1)c1cccs1`, for which the GI50 with EKVX NSCLC is 73.1 µM; in the assay with K-562 leukemia, 30.2 µM; in the assay on KM12 colon it was 29.5 µM; with MALME-3M melanoma, 56.9 µM; in the assay on NCI-H23 lung, 51.6 µM; in the assay on OVCAR-4 ovarian, 83.8 µM. Moreover, the figures for the GI50 with SF-539 CNS, with SNB-75 CNS and with T-47D breast were 71.5 µM, more than 100 µM and 30.2 µM, respectively. Besides, the TGI in the assay on EKVX NSCLC, with K-562 leukemia, in the assay on KM12 colon, with MALME-3M melanoma, in the assay with NCI-H23 lung and in the assay on OVCAR-4 ovarian was more than 100 µM in each case. Besides, the TGI in the assay with SF-539 CNS, in the assay with SNB-75 CNS and in the assay with T-47D breast was more than 100 µM throughout.
Turning to `Nc1c(C(=O)c2cccc(-c3ccncc3)c2)cnn1-c1ccc(F)cc1F`, the GI50 is 2.57 µM in the assay on K-562 leukemia; 2.05 µM in the assay with KM12 colon; 3.98 µM in the assay with MALME-3M melanoma; 10.7 µM with NCI-H23 lung; 11.4 µM in the assay on OVCAR-4 ovarian; more than 16.4 µM in the assay with SF-539 CNS. The GI50 was 12.1 µM in the assay on SN12C renal, 4.99 µM with SNB-75 CNS and 3.67 µM in the assay with T-47D breast. The TGI with K-562 leukemia was more than 25 µM; with KM12 colon it was more than 25 µM; in the assay on MALME-3M melanoma, more than 16.2 µM; in the assay with NCI-H23 lung, more than 25 µM; in the assay on OVCAR-4 ovarian, more than 25 µM; with SF-539 CNS it was more than 25 µM. Also, the TGI in the assay on SN12C renal, in the assay on SNB-75 CNS and in the assay with T-47D breast was more than 25 µM throughout.
For the compound `Cc1cc2c(cc1C)N(C(=O)CCl)CC(=O)N2`, the GI50 was 3.39 µM in the assay on K-562 leukemia; 8.2 µM in the assay with KM12 colon; 1.81 µM in the assay with MALME-3M melanoma; 3.41 µM in the assay on NCI-H23 lung; 1.59 µM in the assay with OVCAR-4 ovarian; 3.44 µM in the assay on SF-539 CNS. Also, the GI50 in the assay on SN12C renal is 3.44 µM; in the assay on SNB-75 CNS it was 3.39 µM; in the assay on T-47D breast, 1.97 µM. For the same compound, the TGI with K-562 leukemia was 29.4 µM; with KM12 colon, 22.2 µM; with MALME-3M melanoma it was 3.81 µM; in the assay with NCI-H23 lung, 16.4 µM; in the assay on OVCAR-4 ovarian it was 3.05 µM; with SF-539 CNS, 10.9 µM. In addition, the TGI in the assay with SN12C renal is 12 µM; in the assay on SNB-75 CNS, 20.8 µM; in the assay on T-47D breast it was 3.99 µM.
Turning to `COc1ccc2cc(C(=O)/C=C/c3ccc(Cl)cc3Cl)ccc2c1`, the GI50 in the assay on EKVX NSCLC was 9.79 µM; in the assay on K-562 leukemia it was 2.53 µM; with KM12 colon, 14.3 µM; with MALME-3M melanoma, 23.5 µM; in the assay with NCI-H23 lung, 20.5 µM; with SF-539 CNS it was 3.98 µM. Also, the GI50 with SN12C renal was 25.9 µM; in the assay with T-47D breast it was 20.8 µM. The TGI was 26.4 µM in the assay with EKVX NSCLC; 14.5 µM in the assay on K-562 leukemia; 35 µM in the assay with KM12 colon; more than 100 µM with MALME-3M melanoma; 53.4 µM with NCI-H23 lung; 13.7 µM with SF-539 CNS. The TGI was 67.9 µM with SN12C renal and 66.8 µM with T-47D breast.
Regarding `O=C1c2ccccc2C(O)(O)C1(O)C1(O)C(=O)c2ccccc2C1(O)O` (stereo not drawn), the TGI was more than 100 µM in the assay with EKVX NSCLC; more than 100 µM in the assay on KM12 colon; 54.3 µM in the assay with MALME-3M melanoma; 38.2 µM in the assay with NCI-H23 lung; more than 100 µM with OVCAR-4 ovarian; more than 100 µM in the assay on SF-539 CNS. The TGI came to 30.6 µM with SN12C renal, 72.3 µM in the assay with SNB-75 CNS and 60.3 µM with T-47D breast.
As to `COc1cc(NC(C)CCCNC2CN3CCC2CC3)c2ncccc2c1` (stereo not drawn), the GI50 with EKVX NSCLC was 12.1 µM; with KM12 colon, 14.6 µM; with MALME-3M melanoma it was 10 µM; in the assay on NCI-H23 lung it was 13.8 µM; in the assay with OVCAR-4 ovarian, 1.84 µM; with SF-539 CNS, 15.2 µM. The GI50 in the assay on SN12C renal was 14.1 µM; with SNB-75 CNS, 7.07 µM; in the assay on T-47D breast, 4.54 µM. Moreover, the TGI in the assay on EKVX NSCLC is 26.7 µM; in the assay on KM12 colon, 29.1 µM; with MALME-3M melanoma it was 24.3 µM; with NCI-H23 lung, 29.6 µM; in the assay on OVCAR-4 ovarian, 6.51 µM; in the assay on SF-539 CNS, 30.5 µM. Moreover, the values for the TGI in the assay with SN12C renal, in the assay on SNB-75 CNS and with T-47D breast were 29.4 µM, 20.6 µM and 20.5 µM, respectively.
Consider `O=C1Nc2ccccc2/C1=C/C(=O)c1coc2c1C(=O)c1ccccc1C2=O`, for which the GI50 in the assay with K-562 leukemia, in the assay on KM12 colon, with MALME-3M melanoma, with NCI-H23 lung, in the assay on OVCAR-4 ovarian and with SF-539 CNS was more than 100 µM in each case. Further, the GI50 was more than 100 µM in the assay with SN12C renal, 18.9 µM in the assay on SNB-75 CNS and 56.9 µM with T-47D breast. The TGI with K-562 leukemia, in the assay on KM12 colon, in the assay on MALME-3M melanoma, in the assay on NCI-H23 lung, in the assay with OVCAR-4 ovarian and in the assay with SF-539 CNS was more than 100 µM throughout. For the same compound, the TGI with SN12C renal, in the assay on SNB-75 CNS and with T-47D breast was more than 100 µM each time.
With `CN[C@@H](C)C(=O)N[C@H](C(=O)N1CCC[C@H]1C(=O)Nc1snnc1-c1ccccc1)C1CCCCC1`, the GI50 was 24.4 µM with K-562 leukemia; 34.4 µM in the assay with KM12 colon; 11.5 µM with MALME-3M melanoma; 38.4 µM in the assay with NCI-H23 lung; 5.58 µM in the assay on OVCAR-4 ovarian; 1.08 µM with SF-539 CNS. Further, the GI50 is 74.9 µM in the assay with SN12C renal, 25.4 µM in the assay with SNB-75 CNS and 57.5 µM in the assay on T-47D breast. The TGI in the assay on K-562 leukemia is 57.7 µM; in the assay with KM12 colon, more than 100 µM; in the assay on MALME-3M melanoma, 26.2 µM; in the assay with NCI-H23 lung, more than 100 µM; with OVCAR-4 ovarian, 99.6 µM; with SF-539 CNS, more than 38.6 µM. In addition, the results for the TGI with SN12C renal, in the assay on SNB-75 CNS and in the assay with T-47D breast were more than 100 µM, more than 94.4 µM and more than 100 µM, respectively.
